From PubChem BioAssay AID1963958 (Molecular Pharmacology Branch, DTP, NCI, 2024)

Tested on: MDA-MB-231 multicell spheroids, viability
Assay: Anticancer human tumor MDA-MB-231 cell line growth inhibition [PI3K];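 note: spheroids exposed to agents for seven days before reading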;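 for viability, T/C: percent of vehicle control luminescence with DMSO treated spheroids as 100%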
Conditions: for IC50: curve of first compound; for viability, T/C: stronger effect = lower value
How it was run: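 Stroma-containing spheroids: tumor line, pooled-donor HUVEC, hMSC. Treatments: targeted agents with PI3K inhibitors. Dosing: clinically relevant, half-log spacing, 10 microM ceiling without known Cmax. Read-out: cell viability.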

[1] = second compound 0.0316 µM, first compound 0.0316 µM
[2] = second compound 0.0316 µM, first compound 0.1 µM
[3] = second compound 0.0316 µM, first compound 0.316 µM
[4] = second compound 0.0316 µM, first compound 1 µM
[5] = second compound 0.0316 µM, first compound 3.16 µM
[6] = second compound 0.0316 µM, first compound 10 µM
[7] = second compound 0.1 µM, first compound 0.0316 µM
[8] = second compound 0.1 µM, first compound 0.1 µM
[9] = second compound 0.1 µM, first compound 0.316 µM
[10] = second compound 0.1 µM, first compound 1 µM
[11] = second compound 0.1 µM, first compound 3.16 µM
[12] = second compound 0.1 µM, first compound 10 µM
[13] = second compound 0.316 µM, first compound 0.0316 µM
[14] = second compound 0.316 µM, first compound 0.1 µM
[15] = second compound 0.316 µM, first compound 0.316 µM
[16] = second compound 0.316 µM, first compound 1 µM
[17] = second compound 0.316 µM, first compound 3.16 µM
[18] = second compound 0.316 µM, first compound 10 µM
[19] = second compound 1 µM, first compound 0.0316 µM
[20] = second compound 1 µM, first compound 0.1 µM
[21] = second compound 1 µM, first compound 0.316 µM
[22] = second compound 1 µM, first compound 1 µM
[23] = second compound 1 µM, first compound 3.16 µM
[24] = second compound 1 µM, first compound 10 µM

`C[C@@H](NC(=O)c1ncnc(N)c1Cl)c1ncc(C(=O)Nc2cc(C(F)(F)F)c(Cl)cn2)s1` + CC(Nc1ccc2c(c1)OCCn1cc(N3C(=O)OCC3C(F)F)nc1-2)C(N)=O gave an IC50 (second compound 0.00316 µM) greater than 10 µM, an IC50 (second compound 0.01 µM) greater than 10 µM and an IC50 (second compound 0.0316 µM) of 3.49 µM. The IC50 (second compound 0.1 µM) was 1.36 µM, the IC50 (second compound 0.316 µM) was 0.625 µM and the IC50 (second compound 1 µM) was 0.337 µM. It also gave a viability, T/C (second compound 0.00316 µM, first compound 0.0316 µM) of 119%, a viability, T/C (second compound 0.00316 µM, first compound 0.1 µM) of 93% and a viability, T/C (second compound 0.00316 µM, first compound 0.316 µM) of 86.7%. The viability, T/C (second compound 0.00316 µM, first compound 1 µM) was 86.9%, the viability, T/C (second compound 0.00316 µM, first compound 3.16 µM) was 73.9% and the viability, T/C (second compound 0.00316 µM, first compound 10 µM) was 50.6%. The viability, T/C (second compound 0.01 µM, first compound 0.0316 µM) was 111%, the viability, T/C (second compound 0.01 µM, first compound 0.1 µM) was 94.2% and the viability, T/C (second compound 0.01 µM, first compound 0.316 µM) was 81.7%. The viability, T/C (second compound 0.01 µM, first compound 1 µM) was 72.1%, the viability, T/C (second compound 0.01 µM, first compound 3.16 µM) was 68.2% and the viability, T/C (second compound 0.01 µM, first compound 10 µM) was 49%. For the same compound, the viability, T/C [1] was 91.3%, the viability, T/C [2] was 75.1% and the viability, T/C [3] was 66.1%. It also gave a viability, T/C [4] of 62.7%, a viability, T/C [5] of 52.3% and a viability, T/C [6] of 40.8%. The viability, T/C [7] was 83%, the viability, T/C [8] was 66.4% and the viability, T/C [9] was 58.8%. For the same compound, the viability, T/C [10] was 54.1%, the viability, T/C [11] was 48.3% and the viability, T/C [12] was 32.6%. It also gave a viability, T/C [13] of 77.8%, a viability, T/C [14] of 66.3% and a viability, T/C [15] of 54.8%. It also gave a viability, T/C [16] of 45.6%, a viability, T/C [17] of 41% and a viability, T/C [18] of 33%. It also gave a viability, T/C [19] of 67.4%, a viability, T/C [20] of 55.4% and a viability, T/C [21] of 49.5%. The viability, T/C [22] was 44.8%, the viability, T/C [23] was 38.4% and the viability, T/C [24] was 28.8%.
In the case of `CNC(=O)c1ccc(N2C(=S)N(c3ccc(C#N)c(C(F)(F)F)c3)C(=O)C2(C)C)cc1F` + Cc1nc(NC(=O)N2CCCC2C(N)=O)sc1-c1ccnc(C(C)(C)C(F)(F)F)c1, the IC50 (second compound 0.0316 µM) is reported as greater than 10 µM, the IC50 (second compound 0.1 µM) is reported as greater than 10 µM and the IC50 (second compound 0.316 µM) is reported as greater than 10 µM. The IC50 (second compound 1 µM) was greater than 10 µM, the IC50 (second compound 3.16 µM) was greater than 10 µM and the IC50 (second compound 10 µM) was greater than 10 µM. The viability, T/C [1] was 100%, the viability, T/C [2] was 94% and the viability, T/C [3] was 93.3%. It also gave a viability, T/C [4] of 95.7%, a viability, T/C [5] of 93.8% and a viability, T/C [6] of 77.2%. It also gave a viability, T/C [7] of 86.1%, a viability, T/C [8] of 88.3% and a viability, T/C [9] of 89.9%. For the same compound, the viability, T/C [10] was 85.6%, the viability, T/C [11] was 76.5% and the viability, T/C [12] was 57.1%. The viability, T/C [13] was 74.3%, the viability, T/C [14] was 77.5% and the viability, T/C [15] was 74.3%. It also gave a viability, T/C [16] of 76.8%, a viability, T/C [17] of 77.2% and a viability, T/C [18] of 57.8%. For the same compound, the viability, T/C [19] was 71.5%, the viability, T/C [20] was 69.8% and the viability, T/C [21] was 68.3%. For the same compound, the viability, T/C [22] was 65.9%, the viability, T/C [23] was 69.5% and the viability, T/C [24] was 57.6%. For the same compound, the viability, T/C (second compound 3.16 µM, first compound 0.0316 µM) was 68.4%, the viability, T/C (second compound 3.16 µM, first compound 0.1 µM) was 68.8% and the viability, T/C (second compound 3.16 µM, first compound 0.316 µM) was 68.2%. For the same compound, the viability, T/C (second compound 3.16 µM, first compound 1 µM) was 68.7%, the viability, T/C (second compound 3.16 µM, first compound 3.16 µM) was 66.4% and the viability, T/C (second compound 3.16 µM, first compound 10 µM) was 51.4%. It also gave a viability, T/C (second compound 10 µM, first compound 0.0316 µM) of 62.1%, a viability, T/C (second compound 10 µM, first compound 0.1 µM) of 62.5% and a viability, T/C (second compound 10 µM, first compound 0.316 µM) of 63.2%. For the same compound, the viability, T/C (second compound 10 µM, first compound 1 µM) was 66.4%, the viability, T/C (second compound 10 µM, first compound 3.16 µM) was 64.1% and the viability, T/C (second compound 10 µM, first compound 10 µM) was 49.9%.
